PubChem BioAssay AID248 (DTP/NCI, 2004)
Where “and” joins values, the source holds several entries; their conditions need not be identical. Identical values can stand only once. Inconclusive results and toxic doses are left out. Cut-off read from the data, not from the text of the source: active = T/C of 150% or more; inactive = T/C below 125%.

Test system: L1210 leukemia ip in BDF1 mice, survival T/C
Experiment: NCI In Vivo Anticancer Drug Screen. Data for tumor model L1210 Leukemia (intraperitoneal) in B6D2F1 (BDF1) mice
Conditions: endpoint: mean survival time, higher = longer survival
In short: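 Value reflects the ratio of survival in compound-treated mice to survival in vehicle-treated controls, with both groups carrying the same transplanted tumor.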

[1] = dose: 100.0 mg/kg/injection, schedule: Q01DX001 (ip), vehicle: carboxymethylcellulose (CMC)
[2] = dose: 200.0 mg/kg/injection, schedule: Q01DX001 (ip), vehicle: carboxymethylcellulose (CMC)
[3] = dose: 100.0 mg/kg/injection, schedule: Q01DX009 (ip), vehicle: saline
[4] = dose: 100.0 mg/kg/injection, schedule: Q04DX003 (ip), vehicle: Klucel (hydroxypropylcellulose) (HPC)
[5] = dose: 200.0 mg/kg/injection, schedule: Q01DX009 (ip), vehicle: saline
[6] = dose: 200.0 mg/kg/injection, schedule: Q04DX003 (ip), vehicle: Klucel (hydroxypropylcellulose) (HPC)
[7] = dose: 400.0 mg/kg/injection, schedule: Q04DX003 (ip), vehicle: Klucel (hydroxypropylcellulose) (HPC)
[8] = dose: 100.0 mg/kg/injection, schedule: Q01DX001 (ip), vehicle: saline
[9] = dose: 200.0 mg/kg/injection, schedule: Q01DX001 (ip), vehicle: saline
[10] = dose: 400.0 mg/kg/injection, schedule: Q01DX001 (ip), vehicle: saline
[11] = dose: 75.0 mg/kg/injection, schedule: Q01DX001 (ip), vehicle: other
[12] = dose: 150.0 mg/kg/injection, schedule: Q01DX001 (ip), vehicle: other
[13] = dose: 300.0 mg/kg/injection, schedule: Q01DX001 (ip), vehicle: other
[14] = dose: 100.0 mg/kg/injection, schedule: Q04DX003 (ip), vehicle: saline
[15] = dose: 200.0 mg/kg/injection, schedule: Q04DX003 (ip), vehicle: saline

Measured: T/C

C=CCc1c2c(ccc(=O)c1O)-c1c(cc(OC)c(OC)c1OC)CCC2NC(C)=O (centres undefined)
inactive: [1] 117 % of control | dose: 177.6 mg/kg/injection, schedule: Q01DX001 (ip), vehicle: carboxymethylcellulose (CMC) 110 % of control and 119 % of control | [2] 117 % of control | dose: 266.8 mg/kg/injection, schedule: Q01DX001 (ip), vehicle: carboxymethylcellulose (CMC) 95 % of control and 118 % of control

CCC1CC(O)c2ccccc2O1 (centres undefined)
inactive: dose: 100.0 mg/kg/injection, schedule: Q01DX001 (ip), vehicle: other 103 % of control | dose: 200.0 mg/kg/injection, schedule: Q01DX001 (ip), vehicle: other 95 % of control | dose: 400.0 mg/kg/injection, schedule: Q01DX001 (ip), vehicle: other 91 % of control

CCN(CC)N=Nc1ccc(S(=O)(=O)N(C)C)cc1
inactive: dose: 100.0 mg/kg/injection, schedule: Q04DX002 (ip), vehicle: saline with Tween-80 104 % of control | dose: 200.0 mg/kg/injection, schedule: Q04DX002 (ip), vehicle: saline with Tween-80 97 % of control | dose: 400.0 mg/kg/injection, schedule: Q04DX002 (ip), vehicle: saline with Tween-80 115 % of control

c1ccc(Oc2ccc(-c3ccc(Oc4ccccc4)cc3)cc2)cc1
inactive: dose: 100.0 mg/kg/injection, schedule: Q01DX009 (ip), vehicle: saline with Tween-80 91 % of control | dose: 400.0 mg/kg/injection, schedule: Q01DX009 (ip), vehicle: saline with Tween-80 91 % of control

c1ccc(COc2ccc(OCc3ccccc3)cc2)cc1
inactive: dose: 50.0 mg/kg/injection, schedule: Q01DX009 (ip), vehicle: saline 93 % of control | [3] 98 % of control | [4] 87 % of control | [5] 93 % of control | [6] 105 % of control | [7] 94 % of control

NC(=S)c1nnn(Cc2ccccc2)c1N
inactive: [8] 100 % of control | [9] 101 % of control | [10] 102 % of control

Cc1ccc(N=Nc2c(C)nc(N)nc2C)c(C)c1
inactive: [11] 98 % of control | [12] 98 % of control | [13] 98 % of control

O=C(O)C(Cl)Cl
inactive: [14] 98 % of control | [15] 93 % of control

C1CN=C(C2=NCCCN2)NC1
inactive: [3] 107 % of control and 101 % of control | [14] 98 % of control | [5] 98 % of control and 101 % of control | [15] 98 % of control | dose: 400.0 mg/kg/injection, schedule: Q01DX009 (ip), vehicle: saline 92 % of control and 102 % of control | dose: 400.0 mg/kg/injection, schedule: Q04DX003 (ip), vehicle: saline 102 % of control

O=[N+]([O-])c1ccc(CBr)c(I)c1
inactive: [11] 98 % of control | [12] 102 % of control | [13] 94 % of control

c1ccc2c(c1)CCC1NC21 (centres undefined)
inactive: [1] 103 % of control | [2] 105 % of control

N#CCCN(C(=O)Nc1cccc(C(F)(F)F)c1)C1CCCCC1
inactive: [1] 100 % of control and 103 % of control | dose: 100.0 mg/kg/injection, schedule: Q01DX009 (ip), vehicle: carboxymethylcellulose (CMC) 90 % of control | dose: 100.0 mg/kg/injection, schedule: Q04DX002 (ip), vehicle: carboxymethylcellulose (CMC) 93 % of control and 89 % of control | dose: 100.0 mg/kg/injection, schedule: Q04DX003 (ip), vehicle: carboxymethylcellulose (CMC) 100 % of control and 103 % of control | [2] 96 % of control and 100 % of control | dose: 200.0 mg/kg/injection, schedule: Q01DX009 (ip), vehicle: carboxymethylcellulose (CMC) 90 % of control | dose: 200.0 mg/kg/injection, schedule: Q04DX002 (ip), vehicle: carboxymethylcellulose (CMC) 93 % of control | dose: 200.0 mg/kg/injection, schedule: Q04DX003 (ip), vehicle: carboxymethylcellulose (CMC) 93 % of control | dose: 400.0 mg/kg/injection, schedule: Q01DX001 (ip), vehicle: carboxymethylcellulose (CMC) 92 % of control and 102 % of control | dose: 400.0 mg/kg/injection, schedule: Q04DX002 (ip), vehicle: carboxymethylcellulose (CMC) 86 % of control | dose: 400.0 mg/kg/injection, schedule: Q04DX003 (ip), vehicle: carboxymethylcellulose (CMC) 95 % of control

C[S+]1CCCCC1
inactive: dose: 50.0 mg/kg/injection, schedule: Q01DX001 (ip), vehicle: saline 96 % of control | [8] 100 % of control

COc1ccc(C(C)c2ccccc2)cc1 (centres undefined)
inactive: dose: 100.0 mg/kg/injection, schedule: Q04DX003 (ip), vehicle: saline with Tween-80 98 % of control | dose: 200.0 mg/kg/injection, schedule: Q04DX003 (ip), vehicle: saline with Tween-80 95 % of control | dose: 400.0 mg/kg/injection, schedule: Q04DX003 (ip), vehicle: saline with Tween-80 93 % of control

CC(=O)Nc1ccc(Cl)c(Cl)c1
inactive: [4] 107 % of control | dose: 100.0 mg/kg/injection, schedule: Q04DX003 (ip), vehicle: other 101 % of control | [6] 114 % of control | dose: 200.0 mg/kg/injection, schedule: Q04DX003 (ip), vehicle: other 98 % of control | [7] 87 % of control | dose: 400.0 mg/kg/injection, schedule: Q04DX003 (ip), vehicle: other 101 % of control

CCCC(CCC)NC(CC)COC(=O)c1ccc(N)cc1 (centres undefined)
inactive: [11] 97 % of control

O=[N+]([O-])c1c[nH]c2ncnc(Cl)c12
inactive: dose: 50.0 mg/kg/injection, schedule: Q01DX001 (ip), vehicle: carboxymethylcellulose (CMC) 98 % of control | [1] 89 % of control | [2] 106 % of control

COc1cc(NC(=O)Nc2ccc(F)c(Cl)c2)c(OC)cc1Cl
inactive: dose: 100.0 mg/kg/injection, schedule: Q04DX002 (ip), vehicle: Klucel (hydroxypropylcellulose) (HPC) 100 % of control | dose: 200.0 mg/kg/injection, schedule: Q04DX002 (ip), vehicle: Klucel (hydroxypropylcellulose) (HPC) 93 % of control | dose: 400.0 mg/kg/injection, schedule: Q04DX002 (ip), vehicle: Klucel (hydroxypropylcellulose) (HPC) 86 % of control

C1CC23CSCC12CSC3 (centres undefined)
inactive: [8] 103 % of control | [9] 111 % of control | [10] 108 % of control
